Laboratory results as given in article PMC8802549 (The Journal of Immunology Author Choice, 2022).
Where two headings read alike, the source gives them in different places.

How the values were obtained:
[1] = test system: BoLA-1*023:01 class I molecule; assay: Peptide–MHC class I binding assay (ELISA of p-MHC monomer folding); design: species or system bovine; details: for Peptide binding to BoLA-1*023:01 (folding in ELISA), in words: Fig. 1B, 10-mer and peptides with 1 or 2 aa deletions at N- or C-terminal end; for Kd: 25 nM BoLA-1*023:01, 150 nM bovine β2m, peptide 0–40 μM, 48 h 18°C, one-site specific binding fit, representative experiment, duplicates
Protocol: Folding of p-MHC class I complexes was assessed with an ELISA assay as described by Svitek et al. ([34]). The BoLA-1*023:01 molecule (25 nM) and bovine β2m molecule (150 nM) were incubated in a 96-well plate with Tp9_67–75 (Muguga, G1 to A9, or V2 to V9) peptides (Mimotopes, purity: 95%) at various peptide concentrations ranging from 0 to 40 μM. After an incubation of 48 h at 18°C, the complexes were transferred to another 96-well plate precoated with streptavidin (catalog number [cat #] 436014; Nunc), which captures biotinylated heavy chains, and incubated for 3 h at 4°C. After washing, the W6/32 mAb (cat # SC-32235; Santa Cruz Biotechnology, TX), which binds to a monomorphic epitope on β2m, but only when it is incorporated in p-MHC class I complexes, was added for 1 h at 4°C. After washing, anti-mouse IgG coupled to peroxidase (cat # A9917-1ML; Sigma-Aldrich) was added to the plate followed by incubation for an hour at room temperature and further rounds of washes. Colorimetric change was performed by adding the TMB Plus2 “Ready to Use” Substrate (cat # 4395H; Kem En Tec) for 10 min at room temperature. The reaction was stopped by adding H2SO4 (0.3 M), and OD was measured using a Synergy HT ELISA plate reader (BioTek) at 450 nm. Kd values were determined by performing a nonlinear regression curve fit (One-Site Specific Binding) with GraphPad Prism (version 6).
Statistical analyses of data were performed with GraphPad Prism version 6 software. To determine the Kd, binding, and half-life values, we performed a nonlinear regression curve fit (One-Site, Specific binding). R^2 values and confidence intervals were generated to assess curve fit and differences between Kd values. When comparing data generated with the ELISPOT assay with a single peptide concentration, we performed a one-way ANOVA with Dunnett’s correction for multiple comparison. When comparing data generated with the ELISPOT assay with varying peptide concentrations, we performed a two-way ANOVA with Dunnett’s correction for multiple comparison (main column effect). All datasets were compared with the data obtained with the Tp9_67–75 Muguga epitope. All experiments were repeated twice using duplicate measurements.

CTL 495 = assay: IFN-γ ELISPOT with Tp9-specific CTL line 495; assay type: cell-based, cattle; details: for IFN-γ ELISPOT stimulation of CTL 495, in words: Supplemental Fig. 1, minimal epitope peptides, relatively high peptide concentration; for IFN-γ ELISPOT response of CTL 495 vs Tp9_67–75 Muguga, in words: Fig. 3A, alanine/glycine-substituted peptides, 2.5 × 10^4 CD8+ cells/well, 20 h 37°C, reduced = SFU >15% lower than Tp9_67–75
Excerpt: (§1) Autologous T. parva Muguga-infected lymphocyte (TpM) lines from animals BF092, 4003, and 495 and TpM-specific bulk CTLs lines after immunization by ITM were established as previously described ([37]). In brief, PBMCs harvested from immunized animals were stimulated at least three times, at weekly intervals, by coculturing with irradiated autologous T. parva–infected cells (TpMs) at a ratio of 5–10:1 (TpMs:PBMC) in RPMI media containing 15% T cell growth factor ([38]). Cells were maintained in RPMI 1640 culture medium (Sigma-Aldrich) containing 10% heat-inactivated FCS (Life Technologies), 2 mM L-glutamine (Sigma-Aldrich), 1 mg/ml gentamicin (Carl-Roth), 100 UI/ml penicillin (Sigma-Aldrich), 100 mg/ml streptomycin (Sigma-Aldrich), 2-ME (BDH, final concentration: 50 μM ([39]); a detailed description of our protocols can be found in Ref. [40]). The CTL lines from 4003 (A14 homozygous) and 495 (A10/A14 heterozygous) were propagated by stimulating them with cesium-137–irradiated autologous TpM (the use of radioisotope and irradiator was per institutional radiation safety guidelines; the length of exposure for inhibiting replication was empirically determined and found to be optimal with an exposure of 30 min at a distance of 10 cm of the cesium-137 source at 265 rad/min using a top linear irradiator [Conservatome, Lyon, France]), at a ratio of 1:5–10 (CTL:TpMs), and supplementing the media with 2 ng/ml recombinant human IL-2 (Sigma) or 15% T cell growth factor. Cells were incubated at 37°C in a 5% CO2 humidified atmosphere. Both CTLs recognize the Tp9 Ag. CTL clone 8 was derived from the CTL 495 by limiting dilution.
IFN-γ ELISPOT assay was performed as previously described ([34]). In brief, a monoclonal anti-bovine IFN-γ Ab (cat # MCA1783; Serotec, Oxford, U.K.) was incubated overnight at 4°C on ELISPOT plates (cat # MAIPN4550; Millipore, Billerica, MA, USA) and then blocked with RPMI containing 10% heat-inactivated FCS for 2 h at 37°C. Peptides (purity: 95%; Mimotopes) were added at concentrations ranging from 0.1 to 1 μM and CD8^+ cells at 2.5 × 10^4 cells/well. The plates were incubated at 37°C for 20 h. Release of IFN-γ was monitored with primary rabbit polyclonal anti-bovine IFN-γ Ab (Sigma-Aldrich, St. Louis, MO, USA) and secondary alkaline phosphatase–conjugated monoclonal anti-rabbit IgG (cat # A2556; Sigma-Aldrich, St. Louis, MO). Development of plates was done by addition of the substrate solution Sigma Fast (BCIP/NBT, cat # B5655-25TAB; Sigma-Aldrich, St. Louis, MO). Plates were read using an automated ELISPOT reader (AID Classic ELISpot Reader).
Statistical analyses of data were performed with GraphPad Prism version 6 software. To determine the Kd, binding, and half-life values, we performed a nonlinear regression curve fit (One-Site, Specific binding). […]

[2] = target: BoLA-1*023:01 MHC class I molecule with bovine β2-microglobulin (bovine) (UniProt P01888); assay: ELISA
CTL 4003 = assay: IFN-γ ELISPOT with Tp9-specific CTL line 4003; assay type: cell-based, cattle; details: Fig. 3A; alanine/glycine-substituted peptides; 2.5 × 10^4 CD8+ cells/well, 20 h 37°C; reduced = SFU >15% lower than Tp9_67–75
Excerpt: as §1, with “Cells were maintained in RPMI 1640 culture medium (Sigma-Aldrich) containing 10% heat-inactivated FCS (Life Technologies), 2 mM L-glutamine (Sigma-Aldrich), 1 mg/ml gentamicin (Carl-Roth), 100 UI/ml penicillin (Sigma-Aldrich), 100 mg/ml streptomycin (Sigma-Aldrich), 2-ME (BDH, final concentration: 50 μM ([39]); a detailed description of our protocols can be found in Ref. [40]).” left out, “Cells were incubated at 37°C in a 5% CO2 humidified atmosphere. Both CTLs recognize the Tp9 Ag. CTL clone 8 was derived from the CTL 495 by limiting dilution.” left out
IFN-γ ELISPOT assay was performed as previously described ([34]). […] Release of IFN-γ was monitored with primary rabbit polyclonal anti-bovine IFN-γ Ab (Sigma-Aldrich, St. Louis, MO, USA) and secondary alkaline phosphatase–conjugated monoclonal anti-rabbit IgG (cat # A2556; Sigma-Aldrich, St. Louis, MO). […]

[3] = target: BoLA-1*023:01 MHC class I molecule with bovine β2-microglobulin (bovine) (UniProt P01888); assay: ELISA; remark: listed apart in the source

Question: Which “Peptide binding to BoLA-1*023:01 (folding in ELISA), in words” value [1] does the source give for “AKFPGMKK [Tp9_67–74, 8-mer Tp9 peptide with 2 aa deleted at the C-terminal end]” here?
Answer: showed binding

Question: What about the “IFN-γ ELISPOT stimulation of CTL 495, in words” value (CTL 495) of the same substance?
Answer: capacity to stimulate

Question: Which results are given for “AKFPGMKKSK [Tp9_67–76, 10-mer peptide from the T. parva (Muguga) Tp9 Ag]”?
Answer: Peptide binding to BoLA-1*023:01 (folding in ELISA), in words [1]: showed binding; IFN-γ ELISPOT stimulation of CTL 495, in words (CTL 495): capacity to stimulate

Question: BoLA-1*023:01 control peptide was tested. Which Kd [2] did it give?
Answer: 6.94 nM

Question: How did the “Peptide binding to BoLA-1*023:01 (folding in ELISA), in words” value [1] turn out when “FPGMKKSK [Tp9_69–76, Tp9 peptide with 2 aa deleted at the N-terminal end]” was run?
Answer: no folding can be measured

Question: How did the “Peptide binding to BoLA-1*023:01 (folding in ELISA), in words” value [1] turn out when “KFPGMKKSK [Tp9_68–76, Tp9 peptide with 1 aa deleted at the N-terminal end]” was run?
Answer: no folding can be measured

Question: How did the Kd [2] turn out when “Tp9A2 peptide (Tp9_(67–75) Muguga with alanine at position 2)” was run?
Answer: 192 nM

Question: How did the Kd [2] turn out when “Tp9A3 peptide (Tp9_(67–75) Muguga with alanine at position 3)” was run?
Answer: 86.2 nM

Question: How did the Kd [2] turn out when “Tp9A4 peptide (Tp9_(67–75) Muguga with alanine at position 4)” was run?
Answer: 28 nM

Question: With “Tp9A5 peptide (Tp9_(67–75) Muguga with alanine at position 5)” as the substance, how does the Kd [2] read?
Answer: 23 nM

Question: “Tp9A6 peptide (Tp9_(67–75) Muguga with alanine at position 6)” was tested. Which Kd [2] did it give?
Answer: 16.6 nM

Question: “Tp9A7 peptide (Tp9_(67–75) Muguga with alanine at position 7)” was tested. Which Kd [2] did it give?
Answer: 10.1 nM

Question: Which Kd [2] does the source give for “Tp9A8 peptide (Tp9_(67–75) Muguga with alanine at position 8)” here?
Answer: 2.58 nM

Question: How did the Kd [2] turn out when “Tp9A9 peptide (Tp9_(67–75) Muguga with alanine at position 9)” was run?
Answer: 15 nM

Question: For “Tp9A9: Tp9_67–75 Muguga with alanine substitution at position 9 (AKFPGMKKA)”, which “IFN-γ ELISPOT response of CTL 4003 vs Tp9_67–75 Muguga, in words” value (CTL 4003) is on record?
Answer: enhanced stimulation

Question: What about the Kd ([1]; Fig. 2 lower panel, alanine-substituted Tp9_67–75) of the same substance?
Answer: 15 nM

Question: And the “IFN-γ ELISPOT response of CTL 495 vs Tp9_67–75 Muguga, in words” value (CTL 495)?
Answer: enhanced stimulation

Question: “Tp9G1 peptide (Tp9_(67–75) Muguga with glycine at position 1)” was tested. Which Kd [2] did it give?
Answer: 13.4 nM

Question: Which results are given for “Tp9G1: Tp9_67–75 Muguga with glycine at position 1 (GKFPGMKKS)”?
Answer: IFN-γ ELISPOT response of CTL 4003 vs Tp9_67–75 Muguga, in words (CTL 4003): enhanced stimulation; Kd ([1]; Fig. 2 upper panel, alanine/glycine-substituted Tp9_67–75): 13.4 nM; IFN-γ ELISPOT response of CTL 495 vs Tp9_67–75 Muguga, in words (CTL 495): enhanced stimulation

Question: What does the source list for Tp9_(67–75) Muguga epitope peptide?
Answer: Kd [2]: 13.9 nM; Kd [3]: 29.7 nM
